Laboratory results taken from patent EP0830136B1, “NEW CRY[…] […]” (priority 1995, dated 1996).
Entries after “also recorded” stand apart in the source; their conditions may differ.

Tests used:
[1] = pH 11 / hydrolysis
[2] = system: tumors implanted in mice
[3] = system: human tumor cell lines KB and LoVo; assay: In vitro cytotoxicity, KB and LoVo; conditions: read-out: cytotoxicities IC50's
[4] = system: SKOV3 cells; assay: Cell proliferation assay (SRB staining), SKOV3; format: cell-based, Human; conditions: 24 hours with IC50 doses
[5] = system: SKVLB1 cells; assay: cells; format: cell-based; conditions: Homo sapiens, SKVLB1, 48 h, read-out: SKVLB1 IC50 (nM)
Method: The Jurkat T cell leukemia line and A-10 rat aortic smooth muscle cells were obtained from the American Type Culture Collection and were cultured in BME containing 10% FBS and 50µg/mL gentamycin sulfate. […] Both cell lines were maintained in BME containing 10% FBS and 50µg/mL gentamycin sulfate.
Cell proliferation assays were performed as described by Skehan et al.^11 For Jurkat cells, cultures were treated with the indicated drugs as described in Skehan^11 and total cell numbers were determined by counting the cells in a hemacytometer. The percentage of cells in mitosis was determined by staining with 0.4% Giemsa in PBS followed by three rapid washes with PBS. At least 1000 cells per treatment were scored for the presence of mitotic figures and the mitotic index was calculated as the ratio of cells with mitotic figures to the total number of cells counted.

[6] = system: Jurkat T cell leukemia line; assay: Jurkat cell proliferation and mitotic index; format: cell-based; conditions: Homo sapiens; Jurkat cells, 24 hours; read-out: IC50s for inhibition of cell proliferation and accumulation of cells in mitosis
[7] = system: A-10 rat aortic smooth muscle cells; assay: Immunofluorescence of cytoskeleton in A-10 cells; format: cell-based
Method: A-10 cells were grown to near-confluency on glass coverslips in BME/10% FBS. Compounds in PBS were added to the indicated final concentrations and cells were incubated for an additional 24 hours. For the staining of microtubules and intermediate filaments, the cells were fixed with cold methanol and incubated with PBS containing 10% calf serum to block nonspecific binding sites. Cells were then incubated at 37°C for 60 min with either monoclonal anti-β-tubulin or with monoclonal anti-vimentin at dilutions recommended by the manufacturer. Bound primary antibodies were subsequently visualized by a 45-minute incubation with fluorescein-conjugated rabbit antimouse IgG. The coverslips were mounted on microscope slides and the fluorescence patterns were examined and photographed using a Zeiss Photomicroscope ill equipped with epifluorescence optics for fluorescein. […] PBS containing 100nM TRITC-phalloidin was then added and the mixture was allowed to incubate for 45 min at 37° C. The cells were washed rapidly three times with PBS before the coverslips were mounted and immediately photographed as described above.

[8] = A-10 cells, 24 hours, 2µM cytochalasin B, 100nM vinblastine or 10nM cryptophycin compounds

Structure (SMILES) | stability of the C-D ester bond [1] | total dosage required in vivo relative to comparator ([2]; mouse, in vivo) | in vivo antitumor activity ([2]; statement in words) | IC50 [3] [nM] | increase in cell number during treatment [4] [%] | increase in cell numbers in the 24 hours following removal of the drug ([4]; then drug-free medium) | IC50 [5] [nM] | IC50 [6] [nM] | microtubule depolymerization after taxol pretreatment [7] | microtubule repolymerization 1 hour after removal of drug ([7]; A-10 cells, 100nM vinblastine or 10nM cryptophycins for 24 hr, then drug-free medium 1 hour) | microtubule repolymerization 24 hours after removal of drug ([7]; A-10 cells, 100nM vinblastine or 10nM cryptophycins for 24 hr, then drug-free medium 24 hours) | effect on microfilaments [7, 8] | effect on microtubules [7, 8] | effect on vimentin intermediate filaments [7, 8]
COc1ccc(C[C@H]2NC(=O)/C=C/C[C@@H]([C@H](C)[C@H]3O[C@@H]3c3ccccc3)OC(=O)[C@H](CC(C)C)OC(=O)C(C)(C)CNC2=O)cc1Cl [Cryptophycin 52] | stable at pH 11 | roughly three times the total dosage compared with Cryptophycin 1 | active in vivo | 0.043 to 0.07 | – | – | – | – | – | – | – | – | – | –
CC[C@]1(O)C[C@@H]2CN(CCc3c([nH]c4ccccc34)[C@@](C(=O)OC)(c3cc4c(cc3OC)N(C)[C@H]3[C@@](O)(C(=O)OC)[C@H](OC(C)=O)[C@]5(CC)C=CCN6CC[C@]43[C@@H]65)C2)C1 [vinblastine] | – | – | – | – | 25 | approximately 3 fold | 4200 | 8 | pretreatment with taxol prevented microtubule depolymerization | significant levels of microtubules | complete morphological recovery | Neither compound affected microfilawent organization | marked depletion of microtubules; also recorded: complete depolymerization of microtubules; also recorded: complete microtubule depolymerization | collapsed, forming concentric rings around the nuclei
